Molecular target: T1, recombinant human glucocerebrosidase produced in baculovirus/SF9 system, enzyme in the culture media (Homo sapiens, UniProt P04062)
T1 construct: made in house; host or cells: Spodoptera frugiperda SF9 cells infected with recombinant baculovirus (AcNPV, pAc373/GC)
T1 sequence (P04062 40-536): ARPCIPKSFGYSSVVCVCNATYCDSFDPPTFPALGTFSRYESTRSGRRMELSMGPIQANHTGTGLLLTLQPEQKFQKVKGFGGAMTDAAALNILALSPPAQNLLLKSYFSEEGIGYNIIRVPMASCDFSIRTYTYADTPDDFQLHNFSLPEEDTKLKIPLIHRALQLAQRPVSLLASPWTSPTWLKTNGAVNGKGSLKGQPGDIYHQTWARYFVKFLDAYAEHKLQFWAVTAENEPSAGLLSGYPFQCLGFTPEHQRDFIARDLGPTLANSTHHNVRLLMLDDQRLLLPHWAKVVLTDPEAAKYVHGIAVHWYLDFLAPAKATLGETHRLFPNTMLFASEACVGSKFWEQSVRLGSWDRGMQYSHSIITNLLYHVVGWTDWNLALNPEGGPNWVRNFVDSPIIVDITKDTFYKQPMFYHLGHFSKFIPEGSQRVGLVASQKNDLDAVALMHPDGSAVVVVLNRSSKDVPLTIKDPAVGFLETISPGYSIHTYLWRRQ
Assay: Km determination, β-glucosidase activity with 4MUGP
Assay type: biochemical
Conditions: pH 5.9, 100 mM potassium phosphate, 0.15% Triton X-100, 0.125% sodium taurocholate
Experimental: Glucocerebrosidase assays: For pH profile and inhibition studies, glucocerebrosidase activity was measured using 100 mM potassium phosphate buffer containing 0.15% Triton X-100, 2.5 μl of β-D-[1-^14 C] glucocerebroside (7.5 mg/ml in sodium taurocholate at 50 mg/ml), and the sample in the total volume of 200 ul. Preincubations with conduritol-B-epoxide were for 30 min at 37° C. […] Purification of recombinant glucocerebrosidase was also monitored using 4MUGP.

Work on `Cc1cc(=O)oc2cc(O[C@@H]3O[C@H](CO)[C@@H](O)[C@H](O)[C@H]3O)ccc12` [4MUGP, 4-methylumbellifery-β-D-glucopyranoside] yielded a Km of 3.3 mM.

Reference: US6074864A, “Cloned DNA for synthesizing unique glucocerebrosidase” (The United States of America as represented by the …, priority 1994, dated 2000)
